Holding throughout (format): cell-based
The test system of one assay is RSV A2. The experiment in a line: Plaque Reduction Assay 1 (Vero cells, immunostaining). The following applies: two replicate values, read-out: RSV Plaque Reduction assays A2 (PRNT1) (n = 2) IC50. The protocol: Plaque Reduction Assay 1: Vero cells were seeded in 96-well plates in a volume of 100 μL of Optimem supplemented with 3% FCS at a concentration of 4×10^4 cells per well. After an overnight incubation at 37° C. in a humidified 5% CO2 atmosphere, the monolayer of cells should be approximately 90% confluent. Antiviral compounds were titrated in pre-warmed Serum Free (SF) Optimem in a U-bottom 96 well plate. For compounds in a DMSO solution, titration in 100% DMSO was performed first and each concentration added individually to a 2× final concentration at 4% DMSO in SF media before mixing with virus (2% final DMSO with virus). Media was then removed from cells and replaced with PBS (100 μl/well). RSV stock was thawed and diluted in SF Optimem media to 4000 PFU/mLl. An equal volume of virus was added to compounds on the titration plate. PBS was removed from cells which were then inoculated with the virus/compound solution (50 μL/well). Cells were incubated for 2 h in a 37° C.+5% CO2 humidified incubator to allow infection. Inoculum was removed and media (Optimem+1% FCS) added to cells (100 μl/well). Cells were subsequently incubated for 48 h at 37° C.+5% CO2 in a humidified incubator. Immunostaining Procedure: Media was removed from cells and the monolayer washed with PBS. Cells were fixed with ice cold 80% Acetone in PBS (100 μl/well) for 20 mins at −20° C. Fixative was removed and cells are dried for 30 mins with plates inverted. Blocking solution (5% skim milk powder in PBS-T) was added to cells (150 μL/well) and plates were incubated for 30 mins at room temperature. Blocking solution was removed and plates washed once with PBS-T. Primary antibody in blocking solution was added to plates (50 μl/well) and incubated for 1 h at 37° C. Plates were then washed 3 times with PBS-T. Secondary antibody in blocking solution was added to plates ([…]) and incubated for 1 h at 37° C. in the dark. Plates were washed as above and then dried for 10 mins. Plates were scanned on the Odyssey Imager (Li-Cor Biosciences) at a resolution of […], medium quality and level 5 intensity in the […]. Data Analysis: Images obtained were saved and plaque numbers counted with the aid of computer imaging software. EC50 values for compounds were derived from dose response curves [three variable log(inhibitor) vs response] obtained using Graphpad Prism software.

The target of another assay is T1, RSV A2_F (Human respiratory syncytial virus A, UniProt P03420).
T1 construct: expressed in transfected cells; host or cells: HEK 293T/17
The assay is described as follows: RSV fusion assay (luciferase reporter, HEK 293T/17 cells transfected with A2_F). Particulars: Fusion activity IC50 μM, HEK 293T/17 cells, 24 hr. How it is done: HEK 293T/17 cells were cultured in T75 culture flasks in Dulbecco's medium (DMEM) containing 10% FBS and 1× Penicillin-Streptomycin (Pen/Strep) and warmed to 37° C. prior to use. The cells were passaged by first washing briefly with 3 ml phosphate buffered saline (PBS) followed by a 4 min incubation with […] at 37° C. 7 ml media was then added to the flask and the cells dispersed via pipetting (×3) against the bottom of the flask. Two further T75 flasks were each seeded with 2×10^6 cells in 15 ml fresh media.
Cells were seeded on the T75 plates at the same density as on the 6-well plates the area of a T75 flask and one 1.75 cm radius well from a 6-well plate were compared. 7.79×2 ml of 3×10^5 cells ml^−1 was used to seed a single T75 flask.
HEK cells were removed from a T75 flask as described above. The cells were counted and diluted to 3×10^5 cells/ml in fresh media. Two T75 flasks were each seeded with 15.58 ml diluted cells.
The plasmid DNA (for pFR-Luc and pcDNA3.1_Gal4/NFκB) to be transfected into the HEK cells was first prepared in serum free media (DMEM+Pen/Strep) containing the transfection reagent Fugene 6 (Promega). Transfections were set up as follows (Luc=pFR_Luc, Gal4=pcDNA3.1+_Gal4/NFκB, A2_F=pcDNA3.1+_A2_F)
Serum free media was placed in a 1.5 ml eppendorf tube then the fugene 6 was added into the media. The tube was vortexed for 1 s before being incubated at RT for 5 min. The plasmid DNA was then added to the tube, vortexed for 1 s, then incubated at RT for 15 min
The transfection reagents were then added to the appropriate T75 flask by tipping the flask on end and adding the reagents directly to the media already in the flask. The flask was then tipped on its back so the media could be mixed thoroughly whilst not disturbing the cells before placing the flask the right way up and incubating overnight at 37° C. and 5% CO2.
Compounds were diluted (in a polypropylene round-bottomed 96 well plate) 1:3 in a twelve point dilution curve to give top [final] of either 3.3 μM, 1 μM, 500 nM 200 nM or 100 nM. The Control compound was always run at a concentration of 100 nM.
The cells were then counted and diluted to 4×10^5 cells/ml in fresh media. 50 μl of transfection population 1 cells were added to all wells of the assay plates. 100 μl diluted compound (2 rows per compound), standard curve (one row) and controls (100 nM RV (100% inhibition, four wells), DMSO (0% inhibition, eight wells)) were added to the appropriate wells. 50 μl of the diluted (4×10^5 cells/ml) transfection population 2 cells when then added to all wells.
The plates were then incubated for 24 hr at 37° C. and 5% CO2
Buffers were prepared for the luciferase assay (20 mM tricine, 10 mM MgSO4, 1 mM EDTA, 10 mM DTT) and lysis (25 mM tris-phosphate, 8 mM MgCl2, 1 mM DTT, 1% Triton X-100, 15% glycerol) and stored at −20° C.
Luminescence was measured as described:
Media was discarded into Virkon and the plates washed with 100 ul PBS per well. 20 ul/well of lysis buffer was added to each well and incubated shaking for 5 min at RT. Luciferin was added to LAAB at a dilution of 1:50 to give a working luciferin buffer. 100 μl working luciferin buffer was added to each well and luminescence was measured immediately. […]
On the technique in general: In a reporter assay the amount or activity of a reporter protein is the signal.

For the next assay, the system named is RSV A2 VR-1540. The assay is described as follows: Plaque Reduction Assay 2 (HEp-2 cells, virospot count). Particulars: human respiratory syncytial virus, 24 h; RSV A2, HEp-2 cells, 1 day. The text has this:
Plaque Reduction Assay 2:
This RSV plaque reduction assay is an infectivity assay which allows quantification of the number of infectious units in a distinct foci of RSV infection. This is indicated by zones of viral antigen detected by specific antibody staining within a monolayer of otherwise healthy tissue culture cells. As each plaque originates from a single infectious virus particle an accurate calculation of the anti-viral effect can be obtained by counting plaques in the presence and absence of an anti-viral compound. HEp-2 cells (ATCC, CCL23) were passaged in flasks and seeded in 96-well plates in DMEM containing antibiotics and supplemented with 10% FBS. During inoculation and subsequent incubation, cells were cultured in DMEM containing 3% FBS. 100 plaque forming unit (PFU)/well of RSV (RSV A2 VR-1540) was mixed with ten serial dilutions of compound. Subsequently, 100 μL of the virus/compound mixtures was added to confluent HEp-2 cell monolayers. The cells and virus/compound mixtures were incubated at 35° C. in a humidified 5% CO2 incubator for 1 day.
Cells were washed twice with PBS before adding 50% v/v EtOH/MeOH, and then stored at −20° C. On the day of the staining, fixative was first removed from the plates. Plates were washed 3× with PBS. A pre-titrated amount of the primary antibody was added in 60 μL PBS/2% milk powder, and plates incubated for 1 h at rt. The plates were washed 3× with PBS/0.05% Tween20 before addition of goat anti-mouse horse radish peroxidase in 60 μL PBS/2% milk powder, and incubated for 1 h at rt. Following three wash steps with PBS/0.05% Tween20, 60 μL ready-to-use TrueBlue was added and plates were incubated at rt for 10-15 min before adding MilliQ water. Plates were washed once with water, incubated for 30-60 min and after removal of water, air-dried in the dark.
Plates were scanned and analyzed using the Immunospot S6 UV analyzer, which is equipped with BioSpot analysis software for counting immunostained plaques (virospots). Plaque counts were used to calculate % infection relative to the mean of the spot count (SC) in the virus control wells for RSV. IC50/IC90 values were calculated as 50% or 90% reduction in signal, respectively, by interpolation of inhibition curves fitted with a 4-parameter nonlinear regression with a variable slope in GraphPad 5.0 (Prism).

Setting [1] is: human respiratory syncytial virus, Vero.

Read-outs that look alike come from different tables or passages of the source.

T1 sequence (P03420 137-574): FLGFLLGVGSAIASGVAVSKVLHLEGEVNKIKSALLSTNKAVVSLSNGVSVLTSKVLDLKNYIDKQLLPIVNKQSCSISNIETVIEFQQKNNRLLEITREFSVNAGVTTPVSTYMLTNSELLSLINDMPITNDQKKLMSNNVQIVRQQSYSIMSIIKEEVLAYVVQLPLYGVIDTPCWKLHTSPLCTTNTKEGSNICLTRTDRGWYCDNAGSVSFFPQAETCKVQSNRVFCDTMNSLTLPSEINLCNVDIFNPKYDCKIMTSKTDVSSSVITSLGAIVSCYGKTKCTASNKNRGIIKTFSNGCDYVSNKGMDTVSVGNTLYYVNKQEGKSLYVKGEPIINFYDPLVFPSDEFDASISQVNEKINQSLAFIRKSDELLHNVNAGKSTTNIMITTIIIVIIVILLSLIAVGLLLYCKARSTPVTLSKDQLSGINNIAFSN
T1 sequence (P03420 26-109): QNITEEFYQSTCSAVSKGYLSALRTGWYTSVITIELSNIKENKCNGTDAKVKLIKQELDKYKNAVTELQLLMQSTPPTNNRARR

Usually IC50 stands for the midpoint of a concentration-inhibition curve. Regarding `CC(C)CCNc1nc(N2CCC(N)C2)ncc1CN1C(=O)C2(CC2)c2ccc(F)cc21` (stereo not drawn) [Compound 1, 1′-((2-(3-Aminopyrrolidin-1-yl)-4-(isopentylamino)pyrimidin-5-yl)methyl)-6′-fluorospiro[cyclopropane-1,3′-indolin]-2′-one], the IC50 was 619 nM in the assay on RSV A2 (setting [1]), 316 nM in the assay with RSV A2 and 0.708 µM on RSV A2_F.
For the compound `NC1CCN(c2ncc(CN3C(=O)C4(CC4)c4ccc(F)cc43)c(NCCCCO)n2)C1` (stereo not drawn) [Compound 4, 1′-((2-(3-Aminopyrrolidin-1-yl)-4-((4-hydroxybutyl)amino)pyrimidin-5-yl)methyl)-6′-fluorospiro[cyclopropane-1,3′-indolin]-2′-one], the IC50 came out at 43 nM in the assay on RSV A2 VR-1540, 5.48 nM with RSV A2 (setting [1]), 9.3 nM with RSV A2 and 0.452 µM on RSV A2_F.
In the same order, the values of `CC(C)CNc1nc(N2CCC(N)C2)ncc1CN1C(=O)C2(CC2)c2ccc(F)cc21` (stereo not drawn) [Compound 5, 1′-((2-(3-Aminopyrrolidin-1-yl)-4-(isobutylamino)pyrimidin-5-yl)methyl)-6′-fluorospiro[cyclopropane-1,3′-indolin]-2′-one] are 998 nM, 165 nM, 215 nM and 0.655 µM.
With `NC1CCN(c2ncc(CN3C(=O)C4(CCC4)c4ccc(F)cc43)c(N[C@H]3CC[C@H](O)CC3)n2)C1` (stereo partly drawn) [Compound 20, 1′-{[2-(3-Aminopyrrolidin-1-yl)-4-[(4-hydroxycyclohexyl)amino]pyrimidin-5-yl]methyl}-6′-fluoro-1′,2′-dihydrospiro[cyclobutane-1,3′-indole]-2′-one], the IC50 in the assay on RSV A2 VR-1540 was 116 nM; at RSV A2_F it was 1.95 µM.
In the same order, the values of `NCCNc1ncc(CN2C(=O)C3(CC3)c3ccc(F)cc32)c(NCCCCO)n1` [Compound 25, 1′-({2-[(2-Aminoethyl)amino]-4-[(4-hydroxybutyl)amino]pyrimidin-5-yl}methyl)-6′-fluoro-1′,2′-dihydrospiro[cyclopropane-1,3′-indole]-2′-one] are 49 nM and 0.212 µM.
Regarding `NC1CCN(c2ncc(CN3C(=O)C4(CC4)c4ccc(F)cc43)c(NCCCO)n2)C1` (stereo not drawn) [Compound 27, 1′-{[2-(3-Aminopyrrolidin-1-yl)-4-[(3-hydroxypropyl)amino]pyrimidin-5-yl]methyl}-6′-fluoro-1′,2′-dihydrospiro[cyclopropane-1,3′-indole]-2′-one], the IC50 stood at 34 nM with RSV A2 VR-1540 and 1.09 µM at RSV A2_F.
In the same order, the values of `CCCNc1nc(N2CCC(N)C2)ncc1CN1C(=O)C2(CC2)c2ccc(F)cc21` (stereo not drawn) [Compound 28, 1′-{[2-(3-Aminopyrrolidin-1-yl)-4-(propylamino)pyrimidin-5-yl]methyl}-6′-fluoro-1′,2′-dihydrospiro[cyclopropane-1,3′-indole]-2′-one] are 63 nM and 1.23 µM.
Turning to `CCNc1nc(N2CCC(N)C2)ncc1CN1C(=O)C2(CC2)c2ccc(F)cc21` (stereo not drawn) [Compound 29, 1′-{[2-(3-Aminopyrrolidin-1-yl)-4-(ethylamino)pyrimidin-5-yl]methyl}-6′-fluoro-1′,2′-dihydrospiro[cyclopropane-1,3′-indole]-2′-one], the IC50 with RSV A2 VR-1540 stood at 740 nM; against RSV A2_F, 1.17 µM.

The values above are taken from US10603319B2, “Pyrimidine derivatives and their use in treating or preventing a respiratory syncytial virus infection” (REVIRAL LIMITED, priority 2016, dated 2020).
